In series [1] the target is T1, chymotrypsin-like activity of rabbit muscle 20S proteasome (Oryctolagus cuniculus, UniProt G1T4Q9).
T1 sequence (G1T4Q9 1-263): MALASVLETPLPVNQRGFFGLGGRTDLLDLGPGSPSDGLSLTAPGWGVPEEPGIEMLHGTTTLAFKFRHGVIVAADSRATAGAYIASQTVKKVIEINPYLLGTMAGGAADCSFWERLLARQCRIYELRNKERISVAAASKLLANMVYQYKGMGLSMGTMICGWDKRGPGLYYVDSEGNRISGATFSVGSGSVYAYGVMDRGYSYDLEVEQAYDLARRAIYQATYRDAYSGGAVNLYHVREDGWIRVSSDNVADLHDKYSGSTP
The series is described as follows: In vitro inhibition of 20S proteasome, suc-LLVY-AMC.

For series [2], the system named is 60 human tumor cell lines. As to the kind of experiment: NCI screening panel, values over all cell lines. It is filed as cell-based.
Series [3] has as its system B16-F10. The series is described as follows: Cell growth inhibition, resazurin, 48 h. It is filed as cell-based, mouse. As to conditions: B16-F10, 48 h drug exposure. How it is done: RPMI 8226 (CCL-155), HT-29 (HTB-38), and B16-F10 (CRL-6475) cells were purchased from ATCC. RPMI 8226 cells were maintained in RPMI 1640 media supplemented with 10% (v/v) FBS, 2 mM L-glutamine, 1 mM sodium pyruvate and Penicillin/Streptomycin at 100 IU/ml and 100 μg/ml, respectively. HT-29 cells were maintained in McCoys 5A supplemented with 10% (v/v) FBS, 2 mM L-glutamine, 1 mM sodium pyruvate, 1% (v/v) non-essential amino acids, 10 mM HEPES and Penicillin/Streptomycin at 100 IU/ml and 100 μg/ml, respectively. B16-F10 cells were maintained in DMEM supplemented with 10% (v/v) FBS, 2 mM L-glutamine, 10 mM HEPES and Penicillin/Streptomycin at 100 IU/ml and 100 μg/ml, respectively.
RPMI 8226 cells were seeded at 2×10^4 cells/well in 90 μl RPMI media containing 10% (v/v) FBS or 1% (v/v) FBS into 96 well black-walled, clear-bottom tissue culture plates. […] Formulae II-16, II-17 and Formula II-18 were serially diluted in media containing 1% or 10% FBS and added in triplicate to the test wells. […] The final concentration of Formula II-18 ranged from 2 μM to 630 pM.
Background: Alamar Blue is a resazurin reagent that responds to reducing activity.

Series [4] concerns HEK293. As to the kind of experiment: Cell growth inhibition, resazurin, 48 h. It is filed as cell-based. As to conditions: Homo sapiens; HEK293, 48 h drug exposure.
For series [5], the system named is PANC-1. As to the kind of experiment: Cell growth inhibition, resazurin, 48 h. It is filed as cell-based. As to conditions: Homo sapiens; PANC-1, 48 h drug exposure.
Series [6] concerns Jurkat. The series is described as follows: Cytotoxicity against Jurkat cells. It is filed as cell-based, human.
Series [7] relates to CCD-27sk. The series is described as follows: Cytotoxic activity, 48 h, normal fibroblasts. It is filed as cell-based. As to conditions: CCD-27sk normal human fibroblasts.
For series [8], the target named is Thrombin (Homo sapiens, UniProt P00734). The series is described as follows: Specificity: inhibition of other proteolytic enzymes. It is filed as biochemical.
Series [9] concerns NF-κB/Luc 293 cells. As to the kind of experiment: Viability of reporter cells, resazurin, 24 hr. It is filed as cell-based, human. As to conditions: at the EC50 concentration of the luciferase assay.
Series [10] concerns Caspase-3 activity in Jurkat cells. As to the kind of experiment: Caspase-3 activity assay (EnzChek). It is filed as cell-based, human. As to conditions: EC50 concentration, 19 hours. The procedure: Jurkat cells were plated at 2×10^6 cells/3 mL per well in a 6-well plate and incubated at 37° C., 5% (v/v) CO2 and 95% (v/v) humidity. […] Bhalla, et al., Blood 82:3133 (1993). […] Cells treated with 0.25% DMSO served as the negative control. The cells were collected by centrifugation and the media removed. Cell pellets were processed for the Caspase-3 activity assay as described in the manufacturer's protocol (EnzChek Caspase-3 Assay Kit from Molecular Probes (E-13183; see Appendix G, which form a part of this application and is also available at hypertext transfer protocol on the worldwide web at “probes.com/media/pis/mp13183.pdf.”. In brief, cell pellets were lysed on ice, mixed with the EnzChek Caspase-3 components in a 96-well plate, and then incubated in the dark for 30 minutes prior to reading fluorescence of cleaved benzyloxycarbonyl-DEVD-AMC using a Packard Fusion with λex=485 nm and λem=530 nm filters. Protein concentrations for lysates were determined using the BCA Protein Assay Kit (Pierce) and these values were used for normalization.

The test system of series [11] is PARP in Jurkat cells. As to the kind of experiment: PARP cleavage, western blot. It is filed as cell-based, human. As to conditions: 100 nM Salinosporamide A 2-24 hrs; […] nM Staurosporine 4 hrs. (In general: In western blotting, separated proteins are transferred to a membrane and probed.)
Series [12] deals with LeTx-induced cytotoxicity of RAW264.7 cells. The series is described as follows: cells. It is filed as cell-based, murine.
For series [13], the system named is VEGF-induced migration of multiple myeloma cells. As to the kind of experiment: Transwell migration assay. It is filed as cell-based. The procedure: The compounds disclosed herein inhibit angiogenesis. […] The other compounds disclosed herein are tested in a transwell migration assay and inhibit migration.
Series [14] deals with RAW264.7 cells. As to conditions: 12 nM, compound alone.
Series [15] concerns MM.1R and Dox-40 cell lines, patient-derived multiple myeloma cells.
[16] abbreviates: mean graph midpoint over all cell lines.

Like-named read-outs stand apart in the source and are kept apart here.

This note sets out measurements from patent publication US7572606B1 (Nereus Pharmaceuticals, Inc., priority 2005, dated 2009).

For orientation: GI50 means the concentration at which growth is held to half of that of the control. Usually viability stands for the share of living cells, or the viability signal relative to a control. A higher viability goes with better survival.

For the molecule `C[C@H]1C(=O)N[C@@]2([C@@H](O)[C@@H]3C=CCCC3)C(=O)O[C@@]12C` [Formula II-20], the EC50 is 2 to 11 nM in [1] and 7.7 ± 3 nM in [1] (read-out: EC50 Chymotrypsin-like, purified rabbit 20S proteasome, suc-LLVY-AMC).

Take `C[C@@]12OC(=O)[C@]1([C@@H](O)[C@@H]1C=CCCC1)NC(=O)[C@@H]2CCCl` [Formula II-16, Salinosporamide A]: in series [2] (Homo sapiens, read-out: mean GI50 value), the GI50 is below 10 nM. Moreover, in [2] (log units), the “Deka Log10 G150” value was 0.00. In addition, the “Deka Log10 TGI” value in series [2] (log units) is listed as 1.21. Further, in series [2] (log units), the “Range Log10 G150” value worked out at 0.00. The “Range Log10 TGI” value in series [2] (log units) is reported as 4.00. The “MG_MID Log10 G150” value in series [2] (setting [16]) is reported as -8.00 Molar. Further, the “MG_MID Log10 TGI” value in series [2] (setting [16]) is reported as -6.79 Molar. Further, the EC50 in series [3] came to 47 ± 20 nM; in series [3] (Mus musculus, B16-F10, 48 h), 33 nM; in series [4], 47 nM; in series [5], 60 nM; in [6] (Homo sapiens, Jurkat) it was 10 nM; in series [7] it was 196 nM. The EC50 in series [8] was above 200 µM; in series [12] it was 3.6 nM; in series [12] (Mus musculus, RAW264.7) it was below 4 nM. Also, in [6] (Jurkat cells), the “% max cell kill” value is recorded as 97%. The cell viability entry in series [9] was “did not affect cell viability”. Moreover, in series [10], the Caspase-3 activity result was “activation of Caspase-3”. Further, in series [11], the PARP cleavage entry was “cleavage of PARP within the Jurkat cells in a time-dependent fashion”. In series [12], the cell-viability turned out to be 82%. In series [12], the “increase in the viability of LeTx-treated cells compared to LeTx treatment alone” value was determined as 10 fold. For the same molecule, the “VEGF-induced migration of multiple myeloma cells” value in series [13] is “blocked vascular endothelial growth-factor (VEGF)-induced migration of multiple myeloma cells”. Further, in [14], the viability is 96%. Besides, in series [15], the “activity against drug resistant multiple myeloma” value was “active against MM.1R and Doxorubicin-resistant Dox-40 cell lines”.
